Data from patent US20230203081A1, “LINCOSAMIDE ANTIBIOTICS AND USES THEREOF” (President and Fellows of Harvard College, priority 2020, published 2023).
Values after ≈ are worked out from the molar mass of the structure shown.

Assays:
Assay type in all cases: cell-based
E. coli armA = assay: microbe, parasite or virus in culture; settings: Escherichia coli, E. coli HAV#056; Clinical, armA
Procedure, shortened: (§1)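 Isolates other than streptococci and anaerobes, which had their own procedures, were grown overnight at 35° C on tryptic soy agar with 5% sheep blood. Suspensions were then diluted to a final inoculum of 5×10^5 CFU/mL in broth microdilution wells.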

E. coli ΔTolC = assay: microbe, parasite or virus in culture; settings: Escherichia coli, E. coli HAV#038; ΔTolC
Procedure, shortened: as §1

S. aureus BAA 977 iErmA = assay: microbe, parasite or virus in culture; settings: Staphylococcus aureus, BAA-977 / MRSA
Procedure, shortened: as §1

S. aureus MP-549 msrA = assay: microbe, parasite or virus in culture; settings: Staphylococcus aureus, MP549MSRA; S. aureus HAV#032, MP-549; MSR(A); read-out: MIC
Procedure, shortened: as §1

[1] = test system: broad panel of different clinical isolates; assay: microbe, parasite or virus in culture
Procedure, shortened: as §1

E. coli LptD = assay: MIC (broth microdilution or agar dilution, CLSI); settings: Escherichia coli, E. coli HAV#040; LptD; read-out: MIC
Procedure, shortened: as §1

E. faecalis ATCC 29212 = assay: MIC (broth microdilution or agar dilution, CLSI); settings: Enterococcus faecalis, ATCC29212, E. faecalis HAV#005, ATCC 29212; read-out: MIC
Procedure, shortened: as §1

K. oxytoca Clinical = assay: MIC (broth microdilution or agar dilution, CLSI); settings: Klebsiella oxytoca; K. oxytoca HAV#450; Clinical; read-out: MIC
Procedure, shortened: as §1

K. pneumoniae ATCC 10031 = assay: MIC (broth microdilution or agar dilution, CLSI); settings: Klebsiella pneumoniae, ATCC10031, K. pneumoniae HAV#008, ATCC 10031; read-out: MIC
Procedure, shortened: as §1

S. aureus ATCC 29213 = assay: MIC (broth microdilution or agar dilution, CLSI); settings: Staphylococcus aureus, ATCC29213, S. aureus HAV#001, ATCC 29213, MP-549; read-out: MIC
Procedure, shortened: as §1

S. aureus ATCC 700699 = assay: MIC (broth microdilution or agar dilution, CLSI); settings: Staphylococcus aureus; S. aureus HAV#202, ATCC 700699 (VISA); read-out: MIC
Procedure, shortened: as §1

[2] = test system: S. aureus ATCC BAA-1707 (MRSA); assay: MIC (broth microdilution or agar dilution, CLSI); settings: Staphylococcus aureus; S. aureus HAV#016, ATCC BAA-1707; MRSA; read-out: MIC
Procedure, shortened: as §1

S. aureus MMX 3035 cErmA = assay: MIC (broth microdilution or agar dilution, CLSI); settings: Staphylococcus aureus, MMX3035CERMA; S. aureus HAV#031, MMX 3035; cErmA; read-out: MIC
Procedure, shortened: as §1

S. aureus hVISA = assay: MIC (broth microdilution or agar dilution, CLSI); settings: Staphylococcus aureus; S. aureus HAV#204, hVISA; read-out: MIC
Procedure, shortened: as §1

S. pneumoniae ATCC 49619 = assay: MIC (broth microdilution or agar dilution, CLSI); settings: Streptococcus pneumoniae, ATCC49619
Procedure, shortened: as §1

[3] = test system: S. pneumoniae MMX 3028 cErmB; assay: MIC (broth microdilution or agar dilution, CLSI); settings: Streptococcus pneumoniae, MMX3028CERMB; S. pneumoniae HAV#033; MMX 3028, cErmB; read-out: MIC
Procedure, shortened: as §1

[4] = test system: S. pneumoniae MMX 3031 cMefA; assay: MIC (broth microdilution or agar dilution, CLSI); settings: Streptococcus pneumoniae, MMX3031CMEFA, S. pneumoniae HAV#034; MMX 3031, cMefA; read-out: MIC
Procedure, shortened: as §1

S. pyogenes ATCC 19615 = assay: MIC (broth microdilution or agar dilution, CLSI); settings: Streptococcus pyogenes, ATCC19615, S. pyogenes HAV#004, ATCC 19615; read-out: MIC
Procedure, shortened: as §1

[5] = test system: S. pyogenes MMX 946; cErmB; assay: MIC (broth microdilution or agar dilution, CLSI); settings: Streptococcus pyogenes; S. pyogenes HAV#035, MMX 946; cErmB, mac-resistant; read-out: MIC
Procedure, shortened: as §1

SMILES: CC[C@H]1OC(=O)[C@H](C)[C@@H](O[C@H]2C[C@@](C)(OC)[C@@H](O)[C@H](C)O2)[C@H](C)[C@@H](O[C@@H]2O[C@H](C)C[C@H](N(C)C)[C@H]2O)[C@](C)(O)C[C@@H](C)CN(C)[C@H](C)[C@@H](O)[C@]1(C)O [Azithromycin]
- MIC (E. coli armA): 4 µg/mL (≈ 5.34 µM)
- MIC (E. coli ΔTolC): 1 µg/mL (≈ 1.34 µM)
- MIC (S. aureus BAA 977 iErmA): > 64 µg/mL
- MIC (S. aureus MP-549 msrA): > 64 µg/mL
- MIC ([1]; Enterococcus faecalis, E. faecalis HAV#602, Clincal): 4 µg/mL (≈ 5.34 µM)
- MIC ([1]; Enterococcus faecalis, E. faecalis HAV#607, Clinical): > 128 µg/mL
- MIC ([1]; Enterococcus faecalis, E. faecalis HAV#608, Clinical): > 128 µg/mL
- MIC ([1]; Enterococcus faecalis, E. faecalis HAV#609, Clinical): > 128 µg/mL
- MIC ([1]; Enterococcus faecalis, E. faecalis HAV#610, Clinical): > 128 µg/mL
- MIC ([1]; Enterococcus faecalis, S. faecalis 5060, Line R & Vanco R): > 256 µg/mL
- MIC ([1]; Enterococcus faecalis, S. faecalis 5074, Line R): 4 µg/mL (≈ 5.34 µM)
- MIC ([1]; Enterococcus faecalis, VRE, E. faecalis HAV#251, Clinical VRE): > 64 µg/mL
- MIC ([1]; Enterococcus faecalis, VRE, E. faecalis HAV#606, Clinical): > 128 µg/mL
- MIC ([1]; Enterococcus faecium, E. faecium HAV#317, Clinical): 8 µg/mL (≈ 10.7 µM)
- MIC ([1]; Enterococcus faecium, E. faecium HAV#324, Clinical): > 128 µg/mL
- MIC ([1]; Enterococcus faecium, E. faecium HAV#327, Clinical): > 128 µg/mL
- MIC ([1]; Enterococcus faecium, E. faecium HAV#328, Clinical): > 128 µg/mL
- MIC ([1]; Enterococcus faecium, E. faecium HAV#329, Clinical): > 128 µg/mL
- MIC ([1]; Enterococcus faecium, VRE, E. faecium HAV#318, VanA): > 64 µg/mL
- MIC ([1]; Enterococcus faecium, VRE, E. faecium HAV#320, Clinical): > 128 µg/mL
- MIC ([1]; Escherichia coli, E. coli HAV#501, Clinical): 64 µg/mL (≈ 85.4 µM)
- MIC ([1]; Escherichia coli, E. coli HAV#503, Clinical): 8 µg/mL (≈ 10.7 µM)
- MIC ([1]; Escherichia coli, E. coli HAV#511, Clinical): 4 µg/mL (≈ 5.34 µM)
- MIC ([1]; Escherichia coli, E. coli HAV#512, Clinical): 8 µg/mL (≈ 10.7 µM)
- MIC ([1]; Escherichia coli, E. coli HAV#513, Clinical): 8 µg/mL (≈ 10.7 µM)
- MIC ([1]; Escherichia coli, E. coli HAV#514, Clinical): 8 µg/mL (≈ 10.7 µM)
- MIC ([1]; Escherichia coli, E. coli HAV#516, ESBL-producing): 4 µg/mL (≈ 5.34 µM)
- MIC ([1]; Haemophilus influenzae, ATCC9007, H. influenzae HAV#376, ATCC-9007): 2 µg/mL (≈ 2.67 µM)
- MIC ([1]; Klebsiella pneumoniae, K. pneumoniae HAV#041, Clinical, KPC): > 64 µg/mL
- MIC ([1]; Klebsiella pneumoniae, K. pneumoniae HAV#404, Clinical): 8 µg/mL (≈ 10.7 µM)
- MIC ([1]; Klebsiella pneumoniae, K. pneumoniae HAV#405, Clinical): 8 µg/mL (≈ 10.7 µM)
- MIC ([1]; Staphylococcus aureus, MRSA, S. aureus HAV#017, MRSA Col(Colindale, England)): 1 µg/mL (≈ 1.34 µM)
- MIC ([1]; Staphylococcus aureus, MRSA, S. aureus HAV#218, Line R): > 64 µg/mL
- MIC ([1]; Staphylococcus aureus, MRSA, S. aureus HAV#220, Line R): > 64 µg/mL
- MIC ([1]; Staphylococcus aureus, MSSA, S. aureus HAV#219, Line R): > 64 µg/mL
- MIC ([1]; Staphylococcus aureus, S. aureus HAV#051, mecA, norA, spcl, ermA, aad1, aac6′-aph2″): 2 µg/mL (≈ 2.67 µM)
- MIC ([1]; Staphylococcus aureus, S. aureus HAV#052, mecA, norA, fosB, blaZ): 2 µg/mL (≈ 2.67 µM)
- MIC ([1]; Staphylococcus aureus, S. aureus HAV#053 mecA, norA, fosB): 2 µg/mL (≈ 2.67 µM)
- MIC ([1]; Staphylococcus aureus, S. aureus HAV#054, mecA, norA, spcl, aad1, fosB, ermA, aac6′-aph2″, blaZ): > 256 µg/mL
- MIC ([1]; Staphylococcus aureus, S. aureus HAV#211, Clinical): > 64 µg/mL
- MIC ([1]; Staphylococcus aureus, S. aureus HAV#212, Clinical): 1 µg/mL (≈ 1.34 µM)
- MIC ([1]; Staphylococcus aureus, S. aureus HAV#213, Clinical): 0.25 µg/mL (≈ 0.334 µM)
- MIC ([1]; Staphylococcus aureus, S. aureus HAV#214, Clinical): 0.25 µg/mL (≈ 0.334 µM)
- MIC ([1]; Staphylococcus aureus, S. aureus HAV#215, Clinical): 0.25 µg/mL (≈ 0.334 µM)
- MIC ([1]; Staphylococcus aureus, S. aureus HAV#216, Clinical, cfr): > 128 µg/mL
- MIC ([1]; Staphylococcus aureus, S. aureus HAV#217, cfr): > 128 µg/mL
- MIC ([1]; Staphylococcus aureus, VISA, S. aureus HAV#203, Clinical (VISA)): > 64 µg/mL
- MIC ([1]; Staphylococcus epidermidis, S. epidermidis HAV# 275 Clinical, cfr): 32 µg/mL (≈ 42.7 µM)
- MIC ([1]; Staphylococcus epidermidis, S. epidermidis HAV# 276, cfr): > 64 µg/mL
- MIC ([1]; Staphylococcus epidermidis, S. epidermidis HAV#277, Line R): > 64 µg/mL
- MIC ([1]; Staphylococcus epidermidis, S. epidermidis HAV#278 Line R): > 64 µg/mL
- MIC ([1]; Staphylococcus epidermidis, S. epidermidis HAV#279, Line R): > 64 µg/mL
- MIC ([1]; Staphylococcus haemolyticus, S. haemolyticus 5052, Line R & Methicillin R): > 256 µg/mL
- MIC ([1]; Streptococcus pneumoniae, ATCC700673, S. pneumoniae HAV#352, ATCC 700673, MDR): > 64 µg/mL
- MIC ([1]; Streptococcus pneumoniae, ATCCBAA255, S. pneumoniae HAV#354, ATCC-BAA-255): 2 µg/mL (≈ 2.67 µM)
- MIC ([1]; Streptococcus pneumoniae, ATCCBAA334, S. pneumoniae HAV#353, ATCC-BAA-334): 1 µg/mL (≈ 1.34 µM)
- MIC ([1]; Streptococcus pneumoniae, S. pneumoniae HAV#356, Clinical): > 64 µg/mL
- MIC ([1]; Streptococcus pneumoniae, S. pneumoniae HAV#358, Clinical): 2 µg/mL (≈ 2.67 µM)
- MIC (E. coli LptD): ≤ 0.03 µg/mL
- MIC (E. faecalis ATCC 29212): 8 µg/mL (≈ 10.7 µM)
- MIC (K. oxytoca Clinical): 16 µg/mL (≈ 21.4 µM)
- MIC (K. pneumoniae ATCC 10031): 4 µg/mL (≈ 5.34 µM)
- MIC (S. aureus ATCC 29213): 1 µg/mL (≈ 1.34 µM)
- MIC (S. aureus ATCC 700699): > 64 µg/mL
- MIC [2]: 1 µg/mL (≈ 1.34 µM)
- MIC (S. aureus MMX 3035 cErmA): > 64 µg/mL
- MIC (S. aureus hVISA): > 64 µg/mL
- MIC (S. pneumoniae ATCC 49619): 0.125 µg/mL (≈ 0.167 µM)
- MIC [3]: > 64 µg/mL
- MIC [4]: 16 µg/mL (≈ 21.4 µM)
- MIC (S. pyogenes ATCC 19615): 0.06 µg/mL (≈ 0.0801 µM)
- MIC [5]: > 64 µg/mL
